Test results from ChEMBL document CHEMBL1201862, “PubChem BioAssay data set” (2004).
Active and inactive are the calls of the source.

What was measured:
BJ [1] = test: growth inhibition of engineered Ras-driven BJ cells – cell-based, alamar blue fluorescence, cherrypicked samples, dose response (AID 2631); assay type: functional; settings: Homo sapiens;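 also: confirmatory dose-response assay in RAS-dependent BJ fibroblasts engineered with TERT, LT and ST, with cytotoxicity read by fluorescence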
HEK293 [2] = test: cells; assay type: functional, cell-based; settings: Homo sapiens
[3] = target: T1, Serine/threonine-protein phosphatase (Candida dubliniensis (strain CD36 / CBS 7987 / NCPF 3949 / NRRLY-17841) (Yeast), UniProt B9W6M3); test: blockers of CaCl2-induced CDRE-lacZ signaling – S. cerevisiae, luminescence, secondary, dose response (AID 2388); assay type: functional, cell-based;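 also: yeast reporter cells carrying a calcineurin-responsive lacZ construct stimulated with calcium chloride; luminescent beta-galactosidase reporter signal in whole cells rather than isolated phosphatase activity; potency for inhibition where a drop in reporter signal means calcineurin blockade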
T1 sequence (B9W6M3 whole entry): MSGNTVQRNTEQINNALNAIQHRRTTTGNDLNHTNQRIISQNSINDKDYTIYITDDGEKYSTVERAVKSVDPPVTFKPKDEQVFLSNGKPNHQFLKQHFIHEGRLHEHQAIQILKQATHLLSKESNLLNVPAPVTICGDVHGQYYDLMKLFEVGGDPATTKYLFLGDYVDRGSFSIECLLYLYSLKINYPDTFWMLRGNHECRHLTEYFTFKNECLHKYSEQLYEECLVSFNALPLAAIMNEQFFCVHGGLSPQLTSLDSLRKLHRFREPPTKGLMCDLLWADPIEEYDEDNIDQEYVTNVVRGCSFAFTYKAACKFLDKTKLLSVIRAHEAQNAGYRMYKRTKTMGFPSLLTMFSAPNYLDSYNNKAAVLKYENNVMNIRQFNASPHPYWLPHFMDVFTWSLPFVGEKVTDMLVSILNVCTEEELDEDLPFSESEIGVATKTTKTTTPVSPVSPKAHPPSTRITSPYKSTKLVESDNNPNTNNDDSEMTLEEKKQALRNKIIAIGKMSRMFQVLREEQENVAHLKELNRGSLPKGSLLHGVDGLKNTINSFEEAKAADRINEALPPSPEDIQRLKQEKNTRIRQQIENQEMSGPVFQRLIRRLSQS

[4] = target: Nucleotide-binding oligomerization domain-containing protein 2 (Homo sapiens, UniProt Q9HC29); test: inhibition of NOD2-driven NF-kB reporter – cell-based, luminescence, uHTS, HEK293 (AID 1566); assay type: functional
Chain of Nucleotide-binding oligomerization domain-containing protein 2 (Q9HC29 whole entry, the tested form may be a part): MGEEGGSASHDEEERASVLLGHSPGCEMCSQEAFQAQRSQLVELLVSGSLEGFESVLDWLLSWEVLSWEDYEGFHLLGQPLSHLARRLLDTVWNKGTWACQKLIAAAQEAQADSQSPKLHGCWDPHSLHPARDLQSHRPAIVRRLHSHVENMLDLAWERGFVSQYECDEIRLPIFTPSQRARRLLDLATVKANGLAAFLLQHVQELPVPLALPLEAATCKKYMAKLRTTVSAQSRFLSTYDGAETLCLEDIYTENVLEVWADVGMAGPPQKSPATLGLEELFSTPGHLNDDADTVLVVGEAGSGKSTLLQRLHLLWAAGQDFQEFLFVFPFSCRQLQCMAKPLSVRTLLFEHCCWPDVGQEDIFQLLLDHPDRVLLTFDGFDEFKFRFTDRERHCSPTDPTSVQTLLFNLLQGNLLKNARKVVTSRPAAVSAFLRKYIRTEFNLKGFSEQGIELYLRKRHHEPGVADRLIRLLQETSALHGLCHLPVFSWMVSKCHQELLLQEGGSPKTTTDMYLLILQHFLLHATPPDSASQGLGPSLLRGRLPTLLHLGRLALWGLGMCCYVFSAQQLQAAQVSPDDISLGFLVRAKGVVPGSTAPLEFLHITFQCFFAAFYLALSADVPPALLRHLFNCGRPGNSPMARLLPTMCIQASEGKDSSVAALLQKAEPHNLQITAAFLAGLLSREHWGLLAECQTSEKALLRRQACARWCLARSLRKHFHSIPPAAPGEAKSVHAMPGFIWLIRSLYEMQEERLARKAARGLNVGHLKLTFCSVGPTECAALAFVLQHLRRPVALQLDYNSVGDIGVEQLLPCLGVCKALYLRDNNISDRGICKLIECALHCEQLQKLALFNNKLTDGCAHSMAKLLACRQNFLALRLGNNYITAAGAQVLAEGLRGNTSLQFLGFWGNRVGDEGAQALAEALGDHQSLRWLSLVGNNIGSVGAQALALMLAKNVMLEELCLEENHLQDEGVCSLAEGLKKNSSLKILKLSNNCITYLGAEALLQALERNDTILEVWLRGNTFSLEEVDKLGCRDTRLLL

[5] = target: Voltage-gated inwardly rectifying potassium channel KCNH2 (Homo sapiens, UniProt Q12809); test: concentration-dependent hERG rescue from blockers – cell-based, thallium flux, dose response (AID 2121); assay type: ADME
[6] = fluconazole-exposed Candida albicans growth modulators – fluorescence, retest, confirmation (AID 2467); assay type: functional, cell-based
INS1 = test: INS-1E survival protection against cytokine death – cell-based, luminescence, retest, dose response (AID 449756); assay type: functional; settings: Rattus norvegicus;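 also: cell death triggered by IL-1 beta plus TNF-alpha plus IFN-gamma mixture; protective hits raise ATP signal compared with cytokine alone wells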
[7] = target: ATP-dependent molecular chaperone HSP82 (Candida albicans (strain WO-1) (Yeast), UniProt C4YTQ8); test: steroid-induced GRE reporter decrease in yeast – S. cerevisiae, luminescence, Hsp90 inhibitor project, dose response (AID 2400); assay type: functional, cell-based;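 also: beta-galactosidase luminescence from glucocorticoid response element reporter as proxy for Hsp90 function; inhibitor potency where signal loss means Hsp90 inhibition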
Chain of ATP-dependent molecular chaperone HSP82 (C4YTQ8 whole entry): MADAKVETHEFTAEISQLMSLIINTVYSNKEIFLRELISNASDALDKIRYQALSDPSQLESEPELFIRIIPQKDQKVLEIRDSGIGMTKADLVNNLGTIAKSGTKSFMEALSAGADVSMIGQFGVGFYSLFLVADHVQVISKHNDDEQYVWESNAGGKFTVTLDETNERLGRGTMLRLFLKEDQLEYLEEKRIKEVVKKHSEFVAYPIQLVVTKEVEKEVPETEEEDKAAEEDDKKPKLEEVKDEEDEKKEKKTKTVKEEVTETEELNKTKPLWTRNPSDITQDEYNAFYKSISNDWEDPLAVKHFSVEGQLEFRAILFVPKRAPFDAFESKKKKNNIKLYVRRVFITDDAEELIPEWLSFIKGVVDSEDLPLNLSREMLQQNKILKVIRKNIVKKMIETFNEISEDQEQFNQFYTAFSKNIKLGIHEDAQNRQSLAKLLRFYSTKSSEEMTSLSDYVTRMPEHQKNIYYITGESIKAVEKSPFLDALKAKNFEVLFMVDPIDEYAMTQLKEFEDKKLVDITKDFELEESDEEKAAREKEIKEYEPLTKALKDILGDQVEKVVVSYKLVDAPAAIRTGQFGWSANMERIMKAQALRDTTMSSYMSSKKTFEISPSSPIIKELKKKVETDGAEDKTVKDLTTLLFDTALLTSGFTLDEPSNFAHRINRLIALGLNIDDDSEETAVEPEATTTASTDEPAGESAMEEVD

HEK293 [8] = test: NOD2 signaling inhibitors in MDP-stimulated cells, cell-based, uHTS, luminescence (AID 2001); assay type: functional; settings: Homo sapiens
[9] = NIH-3T3 fibroblast cytotoxicity, dose response, cytotoxicity control, cell-based, fluorescence, Alamar Blue, secondary assay (AID 2327); assay type: functional;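 also: NIH-3T3 mouse fibroblasts cultured with fluconazole at 8 µg/mL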
[10] = DRD fibroblast viability loss – cell-based, non-viral oncogenic, luminescence, dose response (AID 1934); assay type: functional; settings: Homo sapiens
Vero [11] = test: cells; assay type: functional; settings: Chlorocebus sabaeus
HEK293 [12] = test: cells; assay type: functional, cell-based; settings: Homo sapiens; remark: listed apart in the source
HEK293 [13] = test: inhibition of NOD1-driven NF-kB reporter – cell-based, luminescence, uHTS, primary screen (AID 1578); assay type: functional; settings: Homo sapiens
BJ [14] = test: BJ-TERT-LT-ST fibroblast viability loss – cell-based, RAS-independent, luminescence, dose response (AID 1935); assay type: functional; settings: Homo sapiens;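 also: BJ fibroblasts immortalized with TERT plus LT and ST oncogenes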
HEK293 [15] = test: cells; assay type: functional, cell-based; settings: Homo sapiens; remark: listed apart in the source
Vero [16] = test: cells; assay type: functional, cell-based; settings: Chlorocebus sabaeus
HEK293 [17] = test: EBV LMP1 TES2 canonical NF-kB signalling blockers – cell-based, HEK293, luciferase, cherry-pick, dose response (AID 588343); assay type: functional; settings: Homo sapiens
BJ [18] = test: BJ-TERT fibroblast viability loss – cell-based, RAS-independent, luminescence, dose response (AID 1933); assay type: functional; settings: Homo sapiens
BJ [19] = test: cells; assay type: functional, cell-based; settings: Homo sapiens
[20] = target: Heat shock protein HSP 90-alpha (Homo sapiens, UniProt P07900); assay type: functional, organism-based
Prothrombin = Prothrombin (Bos taurus, UniProt P00735); test: thrombin protease inhibitors – biochemical, fluorescence polarization, uHTS hits, dose response (AID 602369); assay type: functional
Insulin-degrading enzyme = target: T2, Insulin-degrading enzyme (Homo sapiens, UniProt P14735); test: Dose Response: Fluorescence polarization-based cell-based high throughput dose response assay for inhibitors of insulin-degrading enzyme (IDE). [Related pubchem assays: 434962 (Primary screen (IDE inhibitors in singlicate)), 449730 (Counterscreen (Cytotoxicity in triplicate)), 435028 (Confirmation (IDE inhibitors in triplicate)), 434984 (Summary …; assay type: functional
T2 sequence (P14735 whole entry): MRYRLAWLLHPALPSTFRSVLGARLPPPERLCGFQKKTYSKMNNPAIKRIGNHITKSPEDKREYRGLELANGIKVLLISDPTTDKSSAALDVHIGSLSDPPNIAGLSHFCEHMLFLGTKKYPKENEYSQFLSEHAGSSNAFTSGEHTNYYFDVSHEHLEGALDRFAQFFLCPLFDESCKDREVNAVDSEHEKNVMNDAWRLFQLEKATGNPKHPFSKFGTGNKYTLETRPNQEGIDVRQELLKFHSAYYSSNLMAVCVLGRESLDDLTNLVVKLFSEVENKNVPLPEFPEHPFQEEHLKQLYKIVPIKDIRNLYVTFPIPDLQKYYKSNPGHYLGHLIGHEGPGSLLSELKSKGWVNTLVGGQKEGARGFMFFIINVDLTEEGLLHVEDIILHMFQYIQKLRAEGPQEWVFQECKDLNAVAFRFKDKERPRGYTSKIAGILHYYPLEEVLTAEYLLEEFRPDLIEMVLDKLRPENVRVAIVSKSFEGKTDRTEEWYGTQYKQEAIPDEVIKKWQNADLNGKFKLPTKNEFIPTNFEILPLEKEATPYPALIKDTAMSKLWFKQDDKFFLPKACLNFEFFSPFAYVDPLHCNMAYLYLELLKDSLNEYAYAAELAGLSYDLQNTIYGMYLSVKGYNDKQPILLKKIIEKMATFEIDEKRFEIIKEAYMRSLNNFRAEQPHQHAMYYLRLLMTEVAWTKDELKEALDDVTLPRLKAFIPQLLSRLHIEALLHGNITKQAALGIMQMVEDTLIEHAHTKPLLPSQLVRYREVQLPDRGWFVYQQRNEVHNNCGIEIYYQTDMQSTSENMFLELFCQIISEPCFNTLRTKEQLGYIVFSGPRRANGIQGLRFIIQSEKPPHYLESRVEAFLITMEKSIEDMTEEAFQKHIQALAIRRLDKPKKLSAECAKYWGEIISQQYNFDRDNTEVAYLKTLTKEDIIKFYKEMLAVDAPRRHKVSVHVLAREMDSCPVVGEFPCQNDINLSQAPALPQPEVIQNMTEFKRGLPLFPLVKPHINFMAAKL

[21] = target: 26S proteasome non-ATPase regulatory subunit 14 (Homo sapiens, UniProt O00487); test: inhibition of proteasome subunit RPN11 – biochemical, fluorescence polarization, uHTS hits, confirmation (AID 602368); assay type: functional
Chain of 26S proteasome non-ATPase regulatory subunit 14 (O00487 whole entry): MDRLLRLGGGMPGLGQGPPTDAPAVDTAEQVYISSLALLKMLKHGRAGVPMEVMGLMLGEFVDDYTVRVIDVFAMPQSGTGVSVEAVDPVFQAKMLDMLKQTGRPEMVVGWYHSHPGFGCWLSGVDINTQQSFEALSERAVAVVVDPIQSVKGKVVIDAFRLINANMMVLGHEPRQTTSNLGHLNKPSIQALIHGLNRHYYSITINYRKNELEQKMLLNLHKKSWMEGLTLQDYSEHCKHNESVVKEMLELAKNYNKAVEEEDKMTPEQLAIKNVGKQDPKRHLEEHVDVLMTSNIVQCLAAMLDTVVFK

[22] = target: 72 kDa type IV collagenase (Homo sapiens, UniProt P08253); test: Dose Response validation of uHTS RPN11 inhibitor hits using a MMP-2 Fluorescence assay.; assay type: functional
Chain of 72 kDa type IV collagenase (P08253 whole entry): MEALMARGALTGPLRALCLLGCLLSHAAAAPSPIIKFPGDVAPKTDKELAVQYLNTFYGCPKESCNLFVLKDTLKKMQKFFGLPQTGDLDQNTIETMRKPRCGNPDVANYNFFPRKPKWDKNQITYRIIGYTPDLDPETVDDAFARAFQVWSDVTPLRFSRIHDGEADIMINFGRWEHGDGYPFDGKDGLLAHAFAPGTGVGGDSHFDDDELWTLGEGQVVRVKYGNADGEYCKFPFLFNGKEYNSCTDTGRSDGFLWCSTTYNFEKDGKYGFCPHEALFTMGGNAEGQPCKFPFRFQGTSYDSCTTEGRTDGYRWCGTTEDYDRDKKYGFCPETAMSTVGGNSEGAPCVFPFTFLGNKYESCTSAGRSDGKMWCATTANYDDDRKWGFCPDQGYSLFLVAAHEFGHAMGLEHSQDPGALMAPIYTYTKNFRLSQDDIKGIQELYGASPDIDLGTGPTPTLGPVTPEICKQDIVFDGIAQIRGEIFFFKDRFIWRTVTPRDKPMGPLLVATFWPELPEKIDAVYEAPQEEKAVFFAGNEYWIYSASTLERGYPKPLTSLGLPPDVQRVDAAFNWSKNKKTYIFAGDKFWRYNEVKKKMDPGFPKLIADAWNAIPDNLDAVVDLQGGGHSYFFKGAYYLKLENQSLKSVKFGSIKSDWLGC

[23] = Counterscreen for IDE inhibitors: Luminescence-based cell-based high throughput dose response assay to identify compounds that are cytotoxic to HEK cells. [Related pubchem assays: 434962 (Primary screen (IDE inhibitors in singlicate)), 449730 (Counterscreen (Cytotoxicity in triplicate)), 435028 (Confirmation (IDE inhibitors in triplicate)) …; assay type: functional; settings: HEK293
[24] = target: T3, Zinc finger protein mex-5 (Caenorhabditis elegans, UniProt Q9XUB2); test: potency of MEX-5 RNA-binding blockers – biochemical, C. elegans, fluorescence polarization, dose response (AID 1960)
T3 sequence (Q9XUB2 whole entry): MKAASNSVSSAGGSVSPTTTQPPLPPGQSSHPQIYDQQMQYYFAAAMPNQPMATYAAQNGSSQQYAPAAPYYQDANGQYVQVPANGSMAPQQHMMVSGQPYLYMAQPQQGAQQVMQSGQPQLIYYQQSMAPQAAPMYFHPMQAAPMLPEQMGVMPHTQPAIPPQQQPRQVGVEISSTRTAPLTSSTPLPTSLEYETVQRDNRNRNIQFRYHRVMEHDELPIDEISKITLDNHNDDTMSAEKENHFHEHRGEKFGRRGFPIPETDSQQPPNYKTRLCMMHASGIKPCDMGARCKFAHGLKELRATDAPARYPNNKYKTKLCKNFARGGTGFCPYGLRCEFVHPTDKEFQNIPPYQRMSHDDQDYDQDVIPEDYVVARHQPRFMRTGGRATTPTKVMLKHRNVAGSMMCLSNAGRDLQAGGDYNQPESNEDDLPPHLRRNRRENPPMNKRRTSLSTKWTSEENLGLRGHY

[25] = target: T4, RNA-binding protein pos-1 (Caenorhabditis elegans, UniProt G5EF15); test: disruptors of C. elegans POS-1 RNA interaction – biochemical, fluorescence polarization, dose response (AID 1964);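 also: purified POS-1 fused to maltose binding protein made in E. coli; potency of compounds blocking POS-1 binding to fluorescent RNA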
T4 sequence (G5EF15 whole entry): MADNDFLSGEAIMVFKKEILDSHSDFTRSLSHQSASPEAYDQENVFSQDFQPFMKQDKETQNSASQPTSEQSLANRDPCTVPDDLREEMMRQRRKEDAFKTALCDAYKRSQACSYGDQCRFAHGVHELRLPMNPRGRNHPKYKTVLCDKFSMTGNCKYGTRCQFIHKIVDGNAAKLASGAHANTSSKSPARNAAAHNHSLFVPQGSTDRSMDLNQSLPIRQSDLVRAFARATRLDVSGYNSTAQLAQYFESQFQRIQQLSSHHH

[26] = target: Peroxisome proliferator-activated receptor gamma/Nuclear receptor coactivator 3 (Homo sapiens, UniProt P37231); assay type: functional;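 also: agonist potency for raising coactivator recruitment to the receptor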
[27] = target: Peroxisome proliferator-activated receptor gamma/Nuclear receptor coactivator 1 (Homo sapiens, UniProt P37231); assay type: functional;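 also: agonist potency as compounds enhance coactivator SRC-1 recruitment to PPARgamma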
[28] = target: Peroxisome proliferator-activated receptor gamma/Nuclear receptor coactivator 2 (Homo sapiens, UniProt P37231); assay type: functional;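 also: agonist potency for raising coactivator recruitment to the receptor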
Ion channel NompC = Ion channel NompC (Danio rerio, UniProt Q7T1G6); test: Fluorescence counterscreen assay for TRPML3 agonists: dose response cell-based high-throughput screening assay to identify agonists of the transient receptor potential channel N1 (TRPN1). [Related pubchem assays: 1526, 1424, 1448 ]; assay type: functional
Chain of Ion channel NompC (Q7T1G6 whole entry): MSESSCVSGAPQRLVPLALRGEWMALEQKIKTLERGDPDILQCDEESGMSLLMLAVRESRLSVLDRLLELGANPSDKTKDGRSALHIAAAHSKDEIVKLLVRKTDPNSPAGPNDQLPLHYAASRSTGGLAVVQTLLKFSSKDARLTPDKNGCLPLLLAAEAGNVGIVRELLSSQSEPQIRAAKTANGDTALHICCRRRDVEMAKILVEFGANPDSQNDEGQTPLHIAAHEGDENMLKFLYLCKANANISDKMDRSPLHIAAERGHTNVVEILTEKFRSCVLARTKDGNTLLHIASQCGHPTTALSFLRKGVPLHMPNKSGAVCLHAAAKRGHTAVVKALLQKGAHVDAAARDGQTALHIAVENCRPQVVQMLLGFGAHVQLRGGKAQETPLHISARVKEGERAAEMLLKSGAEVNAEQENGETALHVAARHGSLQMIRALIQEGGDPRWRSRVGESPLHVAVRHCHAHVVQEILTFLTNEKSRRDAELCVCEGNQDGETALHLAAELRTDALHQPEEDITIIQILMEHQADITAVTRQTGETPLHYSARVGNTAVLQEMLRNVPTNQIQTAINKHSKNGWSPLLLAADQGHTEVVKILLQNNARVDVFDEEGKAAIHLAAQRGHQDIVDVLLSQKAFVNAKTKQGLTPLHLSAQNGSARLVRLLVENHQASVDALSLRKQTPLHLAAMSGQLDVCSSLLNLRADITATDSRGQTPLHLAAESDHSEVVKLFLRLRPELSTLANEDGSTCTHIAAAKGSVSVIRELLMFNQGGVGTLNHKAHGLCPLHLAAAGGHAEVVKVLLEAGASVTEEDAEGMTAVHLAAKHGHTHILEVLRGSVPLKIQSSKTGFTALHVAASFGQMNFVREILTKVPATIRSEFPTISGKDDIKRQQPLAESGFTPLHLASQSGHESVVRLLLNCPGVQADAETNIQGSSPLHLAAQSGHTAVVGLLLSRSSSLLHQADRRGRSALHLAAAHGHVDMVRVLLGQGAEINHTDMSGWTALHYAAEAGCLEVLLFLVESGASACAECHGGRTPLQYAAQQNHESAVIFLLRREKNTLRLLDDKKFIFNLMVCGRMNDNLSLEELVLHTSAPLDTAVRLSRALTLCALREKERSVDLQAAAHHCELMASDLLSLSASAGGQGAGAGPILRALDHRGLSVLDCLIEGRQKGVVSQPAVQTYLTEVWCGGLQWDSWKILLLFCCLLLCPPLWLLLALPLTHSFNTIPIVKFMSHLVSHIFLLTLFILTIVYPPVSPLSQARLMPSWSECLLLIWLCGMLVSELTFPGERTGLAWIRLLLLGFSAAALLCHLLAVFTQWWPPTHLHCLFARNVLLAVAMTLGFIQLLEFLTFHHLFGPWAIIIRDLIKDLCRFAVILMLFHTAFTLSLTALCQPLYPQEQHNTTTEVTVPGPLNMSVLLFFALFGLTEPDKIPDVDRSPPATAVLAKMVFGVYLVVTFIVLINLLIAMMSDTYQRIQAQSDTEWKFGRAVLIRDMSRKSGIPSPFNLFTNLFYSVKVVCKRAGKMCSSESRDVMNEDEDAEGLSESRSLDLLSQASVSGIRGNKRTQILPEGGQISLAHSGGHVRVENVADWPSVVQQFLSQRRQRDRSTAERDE

Mucolipin-3 = Mucolipin-3 (Homo sapiens, UniProt Q8TDD5); test: Dose response cell-based high-throughput screening assay for agonists of the transient receptor potential channel ML3 (TRPML3). [Related pubchem assays: 1526, 1424, 1448 ]; assay type: functional
Chain of Mucolipin-3 (Q8TDD5 whole entry): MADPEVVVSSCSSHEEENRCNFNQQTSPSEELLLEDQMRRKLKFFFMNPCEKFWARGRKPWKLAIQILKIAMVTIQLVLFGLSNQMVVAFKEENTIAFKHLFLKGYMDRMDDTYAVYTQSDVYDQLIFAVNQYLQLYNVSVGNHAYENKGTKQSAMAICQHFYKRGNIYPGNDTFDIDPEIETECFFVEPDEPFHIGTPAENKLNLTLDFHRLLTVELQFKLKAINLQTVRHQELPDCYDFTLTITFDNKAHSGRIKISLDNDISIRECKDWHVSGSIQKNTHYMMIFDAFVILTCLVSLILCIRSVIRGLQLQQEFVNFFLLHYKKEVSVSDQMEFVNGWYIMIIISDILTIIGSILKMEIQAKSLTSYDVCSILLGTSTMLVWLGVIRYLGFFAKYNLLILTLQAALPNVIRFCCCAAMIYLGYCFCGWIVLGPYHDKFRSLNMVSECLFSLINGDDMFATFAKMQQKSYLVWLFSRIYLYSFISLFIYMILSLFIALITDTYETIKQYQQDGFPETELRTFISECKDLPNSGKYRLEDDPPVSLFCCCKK

[29] = target: T5, Mannose-6-phosphate isomerase (Homo sapiens, UniProt P34949); test: MPI enzyme activity inhibition – biochemical, fluorescence intensity, coupled assay, primary screen (AID 1209)
T5 sequence (P34949 whole entry): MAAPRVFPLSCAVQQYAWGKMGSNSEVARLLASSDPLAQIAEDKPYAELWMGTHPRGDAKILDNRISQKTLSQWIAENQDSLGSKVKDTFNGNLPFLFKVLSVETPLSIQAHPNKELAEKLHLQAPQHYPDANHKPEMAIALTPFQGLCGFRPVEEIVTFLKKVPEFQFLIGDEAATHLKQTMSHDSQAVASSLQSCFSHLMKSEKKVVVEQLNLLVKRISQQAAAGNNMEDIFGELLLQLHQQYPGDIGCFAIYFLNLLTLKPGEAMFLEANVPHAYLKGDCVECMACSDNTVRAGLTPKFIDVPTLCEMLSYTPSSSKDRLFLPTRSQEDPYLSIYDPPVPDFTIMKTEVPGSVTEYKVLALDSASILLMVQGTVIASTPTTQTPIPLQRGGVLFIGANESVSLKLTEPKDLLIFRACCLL

Q: Which results are given for `COc1cccc(N=Nc2ccc(O)c3ncccc23)c1`?
A: EC50 (BJ [1]): 1.05 µM (active); IC50 (HEK293 [2]): > 20 µM (inactive); EC50 [3]: > 180 µM (inactive); EC50 [4]: > 20 µM (inactive); EC50 [5]: 2.99 µM (active); EC50 [6]: 0.79 µM (active); AC50 (INS1): 2.1 µM (active); EC50 [7]: 13.6 µM (active); IC50 (HEK293 [8]): 3.4 µM (inactive); EC50 [9]: > 160 µM (inactive); EC50 [10]: 12.7 µM (inconclusive); CC50 (Vero [11]): 6.41 µM (active); IC50 (HEK293 [12]): > 20 µM (inactive); EC50 (HEK293 [13]): 3.74 µM (active); EC50 (BJ [14]): 8.08 µM (inconclusive); IC50 (HEK293 [15]): 3.04 µM (active); IC50 (Vero [16]): > 25 µM (active); AC50 (HEK293 [17]): 3.6 µM (active); EC50 (BJ [18]): 7.7 µM (inconclusive); EC50 (BJ [19]): 2.8 µM (inconclusive); AC50 [20]: 4.01 µM (active)

Q: What does the source list for `COc1cc(OC)c(OC)cc1/C=C1\Oc2cc(OS(C)(=O)=O)ccc2C1=O`?
A: IC50 (Prothrombin): 0.468 µM (active); IC50 (Insulin-degrading enzyme): > 55.9 µM (not active); IC50 [21]: 4.35 µM (active); IC50 [22]: > 100 µM (inactive); IC50 [23]: > 55.7 µM (not active); EC50 [24]: > 300 µM (not active); EC50 [25]: > 300 µM (not active)

Q: For `CC(=O)Nc1c(O)nc(SCC(=O)Nc2ccc(C(C)=O)cc2)[nH]c1=O`, which EC50 [26] is on record?
A: > 79.4 µM (not active)

Q: What about the EC50 [27] of the same compound?
A: > 79.4 µM (not active)

Q: And the EC50 [28]?
A: > 79.4 µM (not active)

Q: With `Cc1ccc(S(=O)(=O)N2CC3CCCC2C3)cc1` (stereo unspecified) as the compound, how does the EC50 (Ion channel NompC) read?
A: > 29.9 µM (not active)

Q: What about the EC50 (Mucolipin-3) of the same compound?
A: 3.78 µM (active)

Q: Which IC50 (Insulin-degrading enzyme) does the source give for `CC(=O)Nc1cc(/N=C/c2ccc(O)cc2O)c(Cl)cc1Cl` here?
A: > 6.22 µM (active)

Q: And the IC50 [23]?
A: 16 µM (not active)

Q: Which IC50 [29] does the source give for `O=C(O)c1cccc(N/N=C/c2cccnc2)c1` here?
A: > 50 µM (not active)
